Measured values published in ChEMBL document CHEMBL1201862, “PubChem BioAssay data set” (2004).
Active and inactive are the calls of the source.

What was measured:
[1] = target: T1, Mannose-6-phosphate isomerase (Homo sapiens, UniProt P34949); assay: MPI enzyme activity inhibition – biochemical, fluorescence intensity, coupled assay, primary screen (AID 1209)
T1 sequence (P34949 whole entry): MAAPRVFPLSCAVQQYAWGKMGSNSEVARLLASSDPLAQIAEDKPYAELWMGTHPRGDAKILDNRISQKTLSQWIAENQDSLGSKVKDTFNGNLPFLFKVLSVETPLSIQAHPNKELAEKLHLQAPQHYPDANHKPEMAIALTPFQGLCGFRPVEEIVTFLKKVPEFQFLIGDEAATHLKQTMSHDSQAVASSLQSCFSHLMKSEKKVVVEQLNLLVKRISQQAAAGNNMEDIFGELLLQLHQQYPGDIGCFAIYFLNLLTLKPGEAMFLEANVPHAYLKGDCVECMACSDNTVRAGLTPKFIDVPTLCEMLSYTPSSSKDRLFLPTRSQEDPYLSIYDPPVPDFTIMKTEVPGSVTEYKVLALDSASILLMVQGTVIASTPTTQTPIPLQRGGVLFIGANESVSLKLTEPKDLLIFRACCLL

[2] = viability of PTEN-deleted HCT116 cells – cell-based, HCT116 PTEN knockout, dose response (AID 1047); format: functional;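 also: HCT116 colon tumor cells with PTEN knocked out; cells exposed to compound for 60 hours before readout; potency for loss of cell viability measured by luminescence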
[3] = viability of HCT116 lacking mutant beta-catenin – cell-based, human colon tumor, dose response (AID 1045); format: functional;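 also: HCT116 colon tumor cells with beta catenin knocked out; cells exposed to compound for 60 hours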
[4] = target: T1, Mannose-6-phosphate isomerase; assay: MPI inhibition at elevated mannose 6-phosphate – biochemical, fluorescence intensity, high mannose 6-phosphate, primary screen (AID 1220)
[5] = target: Luciferin 4-monooxygenase (Photinus pyralis, UniProt P08659); assay: Counter Screen for Luciferase-based Assay Positives. [Related pubchem assays: 620, 618, 411 ]
Chain of Luciferin 4-monooxygenase (P08659 whole entry): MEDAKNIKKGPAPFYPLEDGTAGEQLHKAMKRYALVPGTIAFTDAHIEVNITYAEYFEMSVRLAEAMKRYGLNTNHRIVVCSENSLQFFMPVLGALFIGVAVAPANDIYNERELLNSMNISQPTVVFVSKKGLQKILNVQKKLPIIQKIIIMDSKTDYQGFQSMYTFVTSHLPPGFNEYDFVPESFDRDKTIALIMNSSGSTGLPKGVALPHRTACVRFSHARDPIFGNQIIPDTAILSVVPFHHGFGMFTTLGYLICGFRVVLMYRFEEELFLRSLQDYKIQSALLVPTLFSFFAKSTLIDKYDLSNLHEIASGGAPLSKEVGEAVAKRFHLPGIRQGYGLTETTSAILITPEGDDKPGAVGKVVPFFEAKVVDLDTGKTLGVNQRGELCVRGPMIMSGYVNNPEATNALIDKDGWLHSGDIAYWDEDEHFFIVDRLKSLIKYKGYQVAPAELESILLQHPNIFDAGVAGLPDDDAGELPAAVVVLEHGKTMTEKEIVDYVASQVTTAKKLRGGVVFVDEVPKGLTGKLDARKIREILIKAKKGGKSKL

HT-1080 = assay: HT1080 cell viability loss – fluorescence readout (AID 620); format: functional, cell-based; details: Homo sapiens
NADPH oxidase 1 = target: T2, NADPH oxidase 1 (Homo sapiens, UniProt Q9Y5S8); assay: Luminescence-based cell-based dose response assay to identify inhibitors of NADPH oxidase 1 (NOX1).; format: functional
T2 sequence (Q9Y5S8 whole entry): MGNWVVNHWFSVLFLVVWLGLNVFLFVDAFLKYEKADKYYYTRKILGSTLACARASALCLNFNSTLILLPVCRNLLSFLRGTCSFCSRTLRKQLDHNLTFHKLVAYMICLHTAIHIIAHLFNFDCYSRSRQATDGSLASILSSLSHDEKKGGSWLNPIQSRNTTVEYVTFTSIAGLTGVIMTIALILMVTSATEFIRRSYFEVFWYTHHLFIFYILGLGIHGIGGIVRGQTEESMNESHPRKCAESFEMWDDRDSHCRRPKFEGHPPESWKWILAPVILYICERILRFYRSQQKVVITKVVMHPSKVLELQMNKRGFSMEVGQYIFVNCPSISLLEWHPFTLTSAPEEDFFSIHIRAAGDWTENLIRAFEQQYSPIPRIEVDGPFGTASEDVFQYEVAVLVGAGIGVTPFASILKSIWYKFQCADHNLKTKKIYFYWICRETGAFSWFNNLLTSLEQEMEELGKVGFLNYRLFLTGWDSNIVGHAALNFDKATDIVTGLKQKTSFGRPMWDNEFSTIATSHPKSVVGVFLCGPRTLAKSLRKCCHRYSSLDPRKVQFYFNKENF

[6] = target: Peroxisome proliferator-activated receptor gamma/Nuclear receptor coactivator 2 (Homo sapiens, UniProt P37231); format: functional;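 also: agonist potency for raising coactivator recruitment to the receptor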
[7] = target: Peroxisome proliferator-activated receptor gamma/Nuclear receptor coactivator 1 (Homo sapiens, UniProt P37231); format: functional;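 also: agonist potency as compounds enhance coactivator SRC-1 recruitment to PPARgamma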
Chain of Peroxisome proliferator-activated receptor gamma/Nuclear receptor coactivator 1 (P37231 whole entry): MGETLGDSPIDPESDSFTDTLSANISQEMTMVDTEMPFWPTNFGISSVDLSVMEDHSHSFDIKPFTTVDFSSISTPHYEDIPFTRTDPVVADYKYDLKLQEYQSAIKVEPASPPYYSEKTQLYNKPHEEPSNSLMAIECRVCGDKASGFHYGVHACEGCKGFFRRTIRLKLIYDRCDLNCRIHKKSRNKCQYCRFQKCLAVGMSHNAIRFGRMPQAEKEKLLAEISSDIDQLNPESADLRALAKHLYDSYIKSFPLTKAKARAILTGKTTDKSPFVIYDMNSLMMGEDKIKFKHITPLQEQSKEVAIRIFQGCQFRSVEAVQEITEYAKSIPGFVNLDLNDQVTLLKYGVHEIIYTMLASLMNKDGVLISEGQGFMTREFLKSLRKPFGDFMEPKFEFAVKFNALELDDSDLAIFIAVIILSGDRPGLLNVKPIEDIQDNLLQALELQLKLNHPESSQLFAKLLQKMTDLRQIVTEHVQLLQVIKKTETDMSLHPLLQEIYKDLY
Chain of Peroxisome proliferator-activated receptor gamma/Nuclear receptor coactivator 1 (Q15788 whole entry, further chain): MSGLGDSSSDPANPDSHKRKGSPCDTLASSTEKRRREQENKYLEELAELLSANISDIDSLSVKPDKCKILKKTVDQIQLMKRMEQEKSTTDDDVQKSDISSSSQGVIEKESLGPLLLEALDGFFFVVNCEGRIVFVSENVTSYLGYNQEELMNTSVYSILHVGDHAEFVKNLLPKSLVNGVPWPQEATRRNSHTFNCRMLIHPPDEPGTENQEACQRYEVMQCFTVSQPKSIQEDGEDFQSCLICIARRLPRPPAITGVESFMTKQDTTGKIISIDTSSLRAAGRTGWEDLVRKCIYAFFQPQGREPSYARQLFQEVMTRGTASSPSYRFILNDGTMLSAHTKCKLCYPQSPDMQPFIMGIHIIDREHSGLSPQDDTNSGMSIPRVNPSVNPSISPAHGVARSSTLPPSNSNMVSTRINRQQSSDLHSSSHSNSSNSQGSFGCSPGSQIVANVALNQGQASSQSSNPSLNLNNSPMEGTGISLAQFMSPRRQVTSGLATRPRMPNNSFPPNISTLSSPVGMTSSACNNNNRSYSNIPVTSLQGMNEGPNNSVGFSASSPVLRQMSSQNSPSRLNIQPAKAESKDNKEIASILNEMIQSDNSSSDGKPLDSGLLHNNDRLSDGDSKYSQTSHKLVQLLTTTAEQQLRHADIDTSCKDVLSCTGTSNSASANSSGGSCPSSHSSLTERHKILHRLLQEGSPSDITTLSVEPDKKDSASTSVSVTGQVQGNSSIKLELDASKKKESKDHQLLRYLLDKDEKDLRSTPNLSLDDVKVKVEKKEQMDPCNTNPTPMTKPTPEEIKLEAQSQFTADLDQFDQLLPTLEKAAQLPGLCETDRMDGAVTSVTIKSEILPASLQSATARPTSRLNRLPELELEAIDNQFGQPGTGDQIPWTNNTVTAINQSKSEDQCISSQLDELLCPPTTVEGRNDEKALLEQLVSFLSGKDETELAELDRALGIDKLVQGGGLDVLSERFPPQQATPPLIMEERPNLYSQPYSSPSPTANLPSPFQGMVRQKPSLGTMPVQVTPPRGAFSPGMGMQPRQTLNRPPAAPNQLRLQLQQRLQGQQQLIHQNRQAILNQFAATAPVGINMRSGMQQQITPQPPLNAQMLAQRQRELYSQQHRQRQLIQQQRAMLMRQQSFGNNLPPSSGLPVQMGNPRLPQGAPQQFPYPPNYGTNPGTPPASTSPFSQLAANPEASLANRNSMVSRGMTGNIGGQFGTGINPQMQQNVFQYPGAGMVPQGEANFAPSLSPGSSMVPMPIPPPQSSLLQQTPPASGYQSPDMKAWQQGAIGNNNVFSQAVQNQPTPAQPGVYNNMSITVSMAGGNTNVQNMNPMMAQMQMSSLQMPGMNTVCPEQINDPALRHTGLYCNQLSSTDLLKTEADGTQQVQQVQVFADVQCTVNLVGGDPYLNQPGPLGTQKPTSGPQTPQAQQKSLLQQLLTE

[8] = luciferase reporter signal suppression in cells – H4 neuroglioma cells, luminescence, dose response (AID 1990); format: functional, cell-based
[9] = target: Peroxisome proliferator-activated receptor gamma/Nuclear receptor coactivator 3 (Homo sapiens, UniProt P37231); format: functional;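 also: agonist potency for raising coactivator recruitment to the receptor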
Chain of Peroxisome proliferator-activated receptor gamma/Nuclear receptor coactivator 3 (P37231 whole entry): as the sequence (P37231 whole entry) above
Chain of Peroxisome proliferator-activated receptor gamma/Nuclear receptor coactivator 3 (Q9Y6Q9 whole entry, further chain): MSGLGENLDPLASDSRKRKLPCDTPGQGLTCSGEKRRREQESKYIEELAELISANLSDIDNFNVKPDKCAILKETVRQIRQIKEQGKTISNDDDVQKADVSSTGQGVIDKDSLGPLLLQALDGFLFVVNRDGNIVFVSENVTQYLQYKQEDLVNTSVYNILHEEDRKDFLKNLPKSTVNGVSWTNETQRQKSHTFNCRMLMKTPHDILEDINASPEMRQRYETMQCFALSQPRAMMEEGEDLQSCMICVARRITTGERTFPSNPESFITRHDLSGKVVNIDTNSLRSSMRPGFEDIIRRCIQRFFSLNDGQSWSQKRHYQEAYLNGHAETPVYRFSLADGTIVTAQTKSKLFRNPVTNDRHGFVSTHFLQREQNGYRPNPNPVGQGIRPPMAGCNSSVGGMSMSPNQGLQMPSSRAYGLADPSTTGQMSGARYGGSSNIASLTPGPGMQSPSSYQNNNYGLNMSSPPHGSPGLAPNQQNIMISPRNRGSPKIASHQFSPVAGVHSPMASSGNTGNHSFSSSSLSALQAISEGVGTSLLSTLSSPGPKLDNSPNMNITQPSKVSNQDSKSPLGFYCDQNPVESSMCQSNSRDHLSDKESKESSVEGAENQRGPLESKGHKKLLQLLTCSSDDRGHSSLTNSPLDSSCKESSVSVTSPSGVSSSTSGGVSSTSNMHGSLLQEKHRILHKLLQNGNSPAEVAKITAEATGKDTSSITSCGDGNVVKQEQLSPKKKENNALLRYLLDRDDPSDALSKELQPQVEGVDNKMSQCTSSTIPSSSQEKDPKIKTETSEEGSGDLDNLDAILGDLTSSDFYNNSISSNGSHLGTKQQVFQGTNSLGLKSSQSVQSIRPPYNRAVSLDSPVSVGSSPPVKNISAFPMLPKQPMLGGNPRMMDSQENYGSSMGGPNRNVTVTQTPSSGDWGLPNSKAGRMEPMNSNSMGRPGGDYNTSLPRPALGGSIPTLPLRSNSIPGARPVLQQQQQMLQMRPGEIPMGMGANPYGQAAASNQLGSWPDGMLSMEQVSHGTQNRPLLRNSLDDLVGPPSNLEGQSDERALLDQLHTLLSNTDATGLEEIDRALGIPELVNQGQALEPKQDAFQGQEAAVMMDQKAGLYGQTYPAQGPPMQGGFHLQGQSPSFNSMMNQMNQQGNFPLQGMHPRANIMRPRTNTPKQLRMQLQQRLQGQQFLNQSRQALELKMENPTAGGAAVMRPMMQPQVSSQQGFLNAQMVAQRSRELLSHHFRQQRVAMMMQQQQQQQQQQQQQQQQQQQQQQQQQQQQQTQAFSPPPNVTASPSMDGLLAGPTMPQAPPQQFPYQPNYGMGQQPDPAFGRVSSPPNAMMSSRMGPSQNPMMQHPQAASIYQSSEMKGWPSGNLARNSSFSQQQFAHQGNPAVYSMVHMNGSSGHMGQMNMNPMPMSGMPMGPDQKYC

[10] = alpha-synuclein stem-loop luciferase translation blockers – H4 neuroglioma cells, luminescence, confirmation (AID 1988); format: functional, cell-based
[11] = antiviral protection against BTV-induced cell death – arbovirus, BSR cells, confirmation (AID 1250); format: functional;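 also: protection from viral cytopathic effect measured as cell viability by ATP luminescence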
Vero [12] = assay: cells; format: functional, cell-based; details: Chlorocebus sabaeus
Vero [13] = assay: cells; format: functional; details: Chlorocebus sabaeus
Cytochrome P450 2C19 = Cytochrome P450 2C19 (Homo sapiens, UniProt P33261); assay: Cytochrome panel assay with activity outcomes. Panel member name: p450-cyp2c19 Compounds with AC50 equal or less than 10 uM are considered active; format: functional; details: read-out: AC50
[14] = system: Streptococcus sp. 'group A'; assay: Streptococcus pyogenes SK(-)GAS viability under kanamycin – luminescence, BacTiterGlo, confirmation, counter-screen for streptokinase expression inhibitor project, dose response (AID 1900); format: functional, organism-based
BJ [15] = assay: BJ-TERT fibroblast viability loss – cell-based, RAS-independent, luminescence, dose response (AID 1933); format: functional; details: Homo sapiens
cells [16] = format: functional, cell-based
Vero [17] = assay: mammalian cell viability reduction – secondary assay, cytotoxicity control for West Nile virus antiviral project, dose response (AID 1650); format: functional; details: Chlorocebus sabaeus
BJ [18] = assay: cells; format: functional, cell-based; details: Homo sapiens
[19] = Trypanosoma cruzi growth suppression in host cells – NIH3T3 host cells, beta-gal luminescence, confirmation (AID 2044); format: functional, cell-based;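 also: intracellular parasites grown in NIH/3T3 mouse fibroblasts as host cells; luminescent beta-galactosidase reporter signal from transgenic T. cruzi replicating inside host cells; inhibitors lower the luminescence signal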
cells [20] = format: functional, cell-based; remark: listed apart in the source
[21] = NIH3T3 cell viability loss – ATP luminescence, mouse fibroblasts, counter-screen, dose response (AID 2010); format: functional, cell-based;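 also: cells exposed to compound for about 90 hours before reading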
BJ [22] = assay: BJ-TERT-LT-ST fibroblast viability loss – cell-based, RAS-independent, luminescence, dose response (AID 1935); format: functional; details: Homo sapiens;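 also: BJ fibroblasts immortalized with TERT plus LT and ST oncogenes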
[23] = DRD fibroblast viability loss – cell-based, non-viral oncogenic, luminescence, dose response (AID 1934); format: functional; details: Homo sapiens
Streptococcus = assay: GAS UMAA2166 growth inhibition – luminescence, BacTiterGlo, counter-screen for streptokinase expression inhibitor project, dose response (AID 1915); format: functional, organism-based;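 also: potency for reduction of bacterial viability or growth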
[24] = Luminescence-based dose response cell-based high throughput screening assay for cytotoxic compounds using the IEC-6 intestinal epithelial cell line. [Related pubchem assays: 1858 (Summary AID.), 1825 (Counterscreen.), 1907 (Confirmation screen.)]; format: functional
[25] = HEK-293T viability loss after treatment – luminescence, T-cell screen hits, cytotoxicity control for TCR NF-kB inhibitor project, dose response (AID 489026); format: functional, cell-based;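 also: cells exposed to compound about 14 hours before the viability readout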
BJ [26] = assay: growth inhibition of engineered Ras-driven BJ cells – cell-based, alamar blue fluorescence, cherrypicked samples, dose response (AID 2631); format: functional; details: Homo sapiens;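 also: confirmatory dose-response assay in RAS-dependent BJ fibroblasts engineered with TERT, LT and ST, with cytotoxicity read by fluorescence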
[27] = Luminescence Cell-Based Dose Response HTS to Identify Inhibitors of 5'UTR Stem-Loop Driven Prion Protein mRNA Translation in H4 Neuroglioblastoma Cells. [Related pubchem assays: 1827 (Project Summary), 1813 (Primary HTS)]; format: functional
[28] = HEK-293T cell viability reduction – luminescence, B-cell screen hits, cytotoxicity control for BCR NF-kB inhibitor project, dose response (AID 489021); format: functional, cell-based;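 also: HEK-293T cells carrying an NF-kB luciferase reporter; cells exposed to compound for about 14 hours before viability readout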
INS1 = assay: INS-1E survival protection against cytokine death – cell-based, luminescence, retest, dose response (AID 449756); format: functional; details: Rattus norvegicus;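 also: cell death triggered by IL-1 beta plus TNF-alpha plus IFN-gamma mixture; protective hits raise ATP signal compared with cytokine alone wells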
[29] = target: Glyceraldehyde-3-phosphate dehydrogenase (Homo sapiens, UniProt P04406)
Chain of Glyceraldehyde-3-phosphate dehydrogenase (P04406 whole entry): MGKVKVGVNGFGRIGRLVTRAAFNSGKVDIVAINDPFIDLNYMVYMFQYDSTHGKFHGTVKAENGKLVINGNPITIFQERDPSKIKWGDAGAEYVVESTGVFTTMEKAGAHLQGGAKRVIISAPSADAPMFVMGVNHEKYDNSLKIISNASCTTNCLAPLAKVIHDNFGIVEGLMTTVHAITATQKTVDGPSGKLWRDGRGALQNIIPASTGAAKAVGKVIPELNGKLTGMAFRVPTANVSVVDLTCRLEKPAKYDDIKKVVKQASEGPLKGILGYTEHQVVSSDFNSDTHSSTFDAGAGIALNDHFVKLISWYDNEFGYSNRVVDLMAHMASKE

Bcl-2-related protein A1 [30] = target: T3, Bcl-2-related protein A1 (Mus musculus, UniProt Q07440); assay: small-molecule antagonists of Bfl-1/BH3 interaction – biochemical, TR-FRET, mouse Bfl-1, confirmation (AID 621);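 also: TR-FRET binding of GST-Bfl-1 to FITC-labelled Bid peptide via terbium antibody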
T3 sequence (Q07440 whole entry): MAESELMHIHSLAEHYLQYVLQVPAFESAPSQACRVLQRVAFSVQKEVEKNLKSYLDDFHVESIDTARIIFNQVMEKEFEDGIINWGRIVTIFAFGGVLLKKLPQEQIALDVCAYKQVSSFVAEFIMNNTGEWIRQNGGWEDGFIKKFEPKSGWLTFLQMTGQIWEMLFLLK

Bcl-2-related protein A1 [31] = target: T3, Bcl-2-related protein A1; assay: Bfl-1 binding inhibitors, SAR follow-up, biochemical, fluorescence polarization (AID 1070)

O=C(NCc1ccco1)c1cccn2c(=O)c3cc4ccccc4cc3nc12
IC50 [1]: > 50 µM (not active)
EC50 [2]: 12.4 µM (active)
EC50 [3]: 10.7 µM (active)
IC50 [4]: > 50 µM (not active)

Cc1ccccc1NC(=O)c1cnc2ccccn2c1=O
EC50 [5]: 46.4 µM (active)
EC50 (HT-1080): > 50 µM (not active)

[O-][S+]1c2ccccc2Nc2ccccc21
IC50 (NADPH oxidase 1): > 20 µM (not active)

O=C(C1=C[C@@H](c2ccc(Br)cc2)C[C@@H](OCCCCO)O1)N1CCN(Cc2ccc3c(c2)OCO3)CC1
EC50 [6]: > 79.4 µM (not active)
EC50 [7]: > 79.4 µM (not active)
EC50 [8]: 16.3 µM (active)
EC50 [9]: > 79.4 µM (not active)
EC50 [10]: 20.5 µM (active)

CCc1ccc(CC2S/C(=C(\C#N)C(C)=O)NC2=O)cc1 (configuration not stated)
IC50 [11]: 27.9 µM (active)
IC50 (Vero [12]): 13.2 µM (active)
CC50 (Vero [13]): > 25 µM (active)

O=c1oc(-c2cccs2)nc2ccc(Br)cc12
IC50 [11]: 28.9 µM (active)
AC50 (Cytochrome P450 2C19): 22.4 µM (inconclusive)

Oc1nc(-c2ccccn2)nc2sc(-c3ccccc3)cc12
EC50 [14]: 0.571 µM (active)
EC50 (BJ [15]): 17.6 µM (active)
EC50 (cells [16]): 4.87 µM (active)
CC50 (Vero [17]): 2.08 µM (active)
EC50 (BJ [18]): 16.2 µM (active)
EC50 [19]: 0.216 µM (active)
EC50 (cells [20]): 16.6 µM (active)
EC50 [21]: 1.27 µM (active)
EC50 (BJ [22]): 15.6 µM (inconclusive)
EC50 [23]: 121 µM (inconclusive)
EC50 (Streptococcus): 13.2 µM (active)
IC50 (Vero [12]): 7 µM (active)

CC1CCc2c(sc3nc(SCC(=O)NCc4ccco4)nc(N)c23)C1 (configuration not stated)
EC50 [6]: > 79.4 µM (not active)
EC50 [7]: > 79.4 µM (not active)
EC50 [9]: > 79.4 µM (not active)

CCOCCOC(=O)c1[nH]c2c(c1C)C(=O)CC(c1ccccc1)C2 (configuration not stated)
EC50 (BJ [15]): 0.851 µM (inconclusive)
EC50 (BJ [18]): 12.6 µM (active)
IC50 [24]: 0.521 µM (active)
EC50 (BJ [22]): 0.756 µM (active)
EC50 [23]: 1.29 µM (active)
IC50 [25]: > 80 µM (inactive)
EC50 (BJ [26]): < 0.104 µM (inconclusive)

COc1ccc(Cc2nc(-c3ccc(NC(=O)c4cccnc4)cc3)no2)cc1
EC50 [8]: 11.2 µM (active)
EC50 (BJ [15]): > 150 µM (inconclusive)
EC50 [27]: 8.73 µM (active)
EC50 [10]: 5.99 µM (active)
EC50 (BJ [18]): 2.38 µM (active)
IC50 [24]: 0.649 µM (active)
EC50 (BJ [22]): > 150 µM (not active)
EC50 [23]: > 150 µM (not active)
IC50 [28]: > 80 µM (inactive)
EC50 (BJ [26]): 58.4 µM (active)
AC50 (INS1): < 0.195 µM (active)

CC(=O)N1c2ccccc2S(=O)(=O)c2ccccc21
IC50 (NADPH oxidase 1): > 20 µM (not active)

O=C1C(Cl)=C(Cl)C(=O)N1c1ccc(Cl)c(Cl)c1
IC50 [29]: > 100 µM (not active)
IC50 (Bcl-2-related protein A1 [30]): 0.77 µM (active)
IC50 (Bcl-2-related protein A1 [31]): 1.15 µM (active)

CN1CCN(C2=C(Cl)C(=O)N(c3ccc(Cl)cc3Cl)C2=O)CC1
IC50 [29]: > 100 µM (not active)
IC50 (Bcl-2-related protein A1 [30]): 1.36 µM (active)
IC50 (Bcl-2-related protein A1 [31]): 2.62 µM (active)
